PubChem BioAssay AID489024 (Sanford-Burnham Center for Chemical Genomics, 2010)
Calls of active or inactive are those of the source.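 The calls were made as follows: active = compounds whose mean EC50, the dose giving half the maximal reporter activation, is at or below a set limit; inactive = the rest.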

Target: CHO-CHOP luciferase reporter, UPR activation, luminescence
Assay: CHOP reporter induction, apoptotic UPR branch – CHO-CHOP cells, luciferase luminescence, confirmation (AID 489024);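 also: compounds added alone to reporter cells with no tunicamycin stress co-treatment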

| SMILES | EC50 |
| --- | --- |
| CCc1cccc(CC)c1NC(=O)/C(C#N)=C/c1ccccc1C(F)(F)F | > 80 µM (inactive) |
| O=[N+]([O-])/C=C\c1ccc(N2CCOCC2)cc1 | 17.5 µM |
| COc1ccc(CCN2CCC(Nc3nc4ccccc4n3Cc3ccc(F)cc3)CC2)cc1 | 9.69 µM |
| Cc1nc([N+](=O)[O-])c(Br)n1CC(=O)c1ccc(Br)cc1 | > 80 µM (inactive) |
| Oc1ccc(/C=N/Nc2ncnc3c2ncn3Cc2ccccc2)cc1O | 13.1 µM |
| O=C(CCN1C(=O)C2C3C=CC(C4CC34)C2C1=O)Oc1cccc2cccnc12 (stereo not given) | 11.2 µM |
| CC(C)(C)C(=O)OCc1nc(-c2ccc(O)c(O)c2)cs1 | 1.38 µM |
| COC(=O)c1cc(=O)n(CCc2ccc(OC)cc2)c(=Nc2ccc(F)c(Cl)c2)s1 | inactive |
| O=C(/C=C\c1ccccc1OC(=O)c1ccccc1F)c1cc2ccccc2o1 | 14 µM |
| COc1ccc(C(c2c(C)[nH]n(C(N)=S)c2=O)C(C#N)C#N)cc1 (stereo not given) | inactive |
| Oc1c(N=Nc2ccccn2)ccc2ccccc12 | 6.46 µM |
| CCOc1ccc(N2C(=O)CC(N(O)c3ccccc3)C2=O)cc1 (stereo not given) | 9.63 µM |
| O=C(NCc1cccnc1)/C(=C/c1ccc(-c2ccc(Cl)cc2)o1)S(=O)(=O)c1ccccc1 | 6.18 µM |
| CC(=O)Nc1ccc(N=Cc2c(O)c(C(=O)Nc3ccccc3)cc3ccccc23)cc1 | inactive |
| COc1ccc(-c2nc(-c3ccccc3)nc(Cl)c2C#N)cc1 | 13.5 µM |
| Cc1ccccc1/C=C/C(=O)c1ccc([N+](=O)[O-])o1 | 9.86 µM |
| Cc1cc(C)c(C(CC(=O)c2cccs2)C(C#N)C#N)c(C)c1 (stereo not given) | 14.2 µM |
| Cc1ccc(-c2nn3c(C)nnc3s2)cc1NC(=O)c1ccc(-c2ccc(Cl)cc2Cl)o1 | 14 µM |
| O=C(Nc1ccc2oc(-c3ccncc3)nc2c1)c1ccc([N+](=O)[O-])o1 | 0.82 µM |
| O=C(CSc1nc2ccc(Nc3nc(N4CCOCC4)nc(N4CCOCC4)n3)cc2s1)Nc1ccccc1F | 14.7 µM |
| CN1/C(=C\C(=O)COC(=O)c2ccc(O)c(O)c2)C(C)(C)c2ccccc21 | 6.67 µM |
| O=C(CCl)Nc1cc(S(=O)(=O)N2CCCCCC2)ccc1Cl | > 80 µM (inactive) |
| O=C1NC(=O)N(Cc2ccccc2)C(=O)/C1=C\C=C\c1ccco1 | > 80 µM (inactive) |
| COc1ccc(C2c3ccc4ccccc4c3Oc3ncn(CCCN(C)C)c(=N)c32)cc1 (stereo not given) | 6.82 µM |
| CSc1nnc(NC(=O)c2nc(S(=O)(=O)Cc3ccccc3F)ncc2Cl)s1 | > 80 µM (inactive) |
| COc1cccc(N=Nc2ccc(O)c3ncccc23)c1 | 12.7 µM |
| CCCCCOc1ccc(N2C(=O)CC(N(O)c3ccccc3)C2=O)cc1 (stereo not given) | 12.3 µM |
| O=C1Nc2ccc(Br)cc2/C1=N/N=C/C1=C(N2CCOCC2)C(=C\c2ccccc2)/CC1 | > 80 µM (inactive) |

| SMILES | EC50 |
| --- | --- |
| Cc1ccc(S(=O)(=O)Nc2cccc3cccnc23)cc1 | 4.41 µM |
| Cc1ccc(NC(=O)c2ccc([N+](=O)[O-])o2)cc1S(=O)(=O)N1CCOCC1 | 11.8 µM |
| CCOc1cc(/C=C2\CN(CC)C/C(=C\c3ccc(O)c(OCC)c3)C2=O)ccc1O | 6.25 µM |
| O=C(/C=C/c1cccnc1)c1ccc(NC(=O)c2cccc(Br)c2)cc1 | inactive |
| Cc1cccc(C)c1NC(=O)c1nc(S(=O)(=O)Cc2ccccc2)ncc1Cl | 12.3 µM |
| CCOc1ccc2c(c1)C(=NNC(=O)c1ccncc1)c1cc(OCC)ccc1-2 | 8.63 µM |
| Cc1nc2ccccc2n1-c1nc(-c2ccco2)cc(C(F)(F)F)n1 | 6.76 µM |
| O=C(Nc1ccc2oc(-c3ccc4ccccc4c3)nc2c1)c1ccc2c(c1)OCCO2 | 19.8 µM |
| O=C(N/N=C/c1cccc([N+](=O)[O-])c1)c1cc2c(ccc3ccccc32)o1 | > 80 µM (inactive) |
| O=C1NN(c2cccc(Br)c2)C(=O)/C1=C/c1cccs1 | inactive |
| Cc1c(NC(=O)CSc2cccc3cccnc23)c(=O)n(-c2ccccc2)n1C | 6.53 µM |
| C/C(=N\NC(=O)C(c1ccccc1)c1ccccc1)c1ccccn1 | 16 µM |
| CCOC(=O)C1CCN(Cc2ccc(O)c3ncccc23)CC1 | 2.74 µM |
| CSC(=S)N/N=C(\C)c1ccccc1 | 12.3 µM |
| CCCCC(CC)CN=C(N)NC(N)=NCCCCCCN=C(N)NC(N)=NCC(CC)CCCC (stereo not given) | > 80 µM (inactive) |
| Cc1ccc(CS(=O)(=O)c2ncc(Cl)c(C(=O)Nc3nnc(C(C)C)s3)n2)cc1 | > 80 µM (inactive) |
| Cc1ccc(C(=O)NC(C#N)=C(Cl)Cl)cc1 | > 80 µM (inactive) |
| CC(C)c1ccc(/C=C(\c2nc3ccccc3[nH]2)S(=O)(=O)c2ccccc2)cc1 | 9.49 µM |
| Cc1ccc2oc(Nc3nc(-c4ccccc4)cc(=O)[nH]3)nc2c1 | 7.41 µM |
| COc1cc(NS(=O)(=O)c2ccc3ccccc3c2)c2ncccc2c1 | 7.5 µM |
| C/C(=N\NC(=O)c1cccc(Br)c1)c1ccccn1 | 2.36 µM |
| NC(N)=N/N=C/c1ccc(N(c2ccccc2)c2ccccc2)cc1 | > 80 µM (inactive) |
| Cc1ccc(C(C[N+](=O)[O-])n2nc(C)cc2C)cc1 (stereo not given) | 9.75 µM |
| O=C(/C(=N/N=C/c1ccc(O)c(O)c1)c1ccccc1)c1ccccc1 | 7.97 µM |
| COc1cccc(/C=N/Nc2nc(Nc3ccccc3)nc(-n3nc(C)cc3C)n2)c1O | 4.28 µM |
| Cc1sc(NC(=O)c2cc(-c3ccc(Cl)cc3)nc3ccccc23)c(C(N)=O)c1C | inactive |
| O=CC1=C(c2ccccc2)Oc2ccccc2O1 | 12.2 µM |
